Measured values taken from patent publication US5502053A, “HIV protease inhibitor compounds” (Merck & Co., Inc., priority 1994, dated 1996).
pIC50: −log10 of the molar value.

Target: T1, HIV protease (Human immunodeficiency virus type 1 group M subtype B, UniProt P03366)
T1 construct: made in house; host or cells: Escherichia coli
Assay: Assay for Inhibition of Microbial Expressed Vital Protease (protease expressed in Eschericia coli, peptide substrate, HPLC of products)
Type: biochemical
Conditions: peptide substrate Val-Ser-Gln-Asn-(betanapthyl)Ala-Pro-Ile-Val 0.5 mg/mL; 50 mM Na acetate, pH 5.5, 30° C., 1 hour; 15 ul of 0.33 nM protease
Method: Assay for Inhibition of Microbial Expressed Vital Protease
Inhibition studies of the reaction of the protease expressed in Eschericia coli with a peptide substrate Val-Ser-Gln-Asn-(betanapthyl)Ala-Pro-Ile-Val, 0.5 mg/mL at the time the reaction is initiated! were in 50 mM Na acetate, p H 5.5, at 30° C. for 1 hour. Various concentrations of inhibitor in 1.0 ul DMSO were added to 25 ul of the peptide solution in water. The reaction is initiated by the addition of 15 ul of 0.33 nM protease (0.11 ng) in a solution of 0.133M Na acetate pH 5.5 and 0.1% bovine serum albumin. The reaction was quenched with 160 ul of 5% phosphoric acid. Products of the reaction were separated by HPLC (VYDAC wide pore 5 cm C-18 reverse phase, acetonitrile gradient, 0.1% phosphoric acid). The extent of inhibition of the reaction was determined from the peak heights of the products.

Compound | pIC50
CCCCC(=O)C[C@@H](CC1CCCCC1)[C@@H](O)C[C@@H](Cc1ccccc1)C(=O)N[C@H]1c2ccccc2C[C@H]1O [Compound A, N-(2(R)-hydroxy-1(S)-indanyl)-5(R)-cyclohexylmethyl-4(S)-hydroxy-7-oxo-2(R) -phenylmethyl undecaneamide] | 7.24 to 7.94
CC(C)(C)CC(=O)C[C@@H](CC1CCCCC1)[C@@H](O)C[C@@H](Cc1ccccc1)C(=O)N[C@H]1c2ccccc2C[C@H]1O [Compound B, N-(2(R)-hydroxy-1(S)-indanyl)-5(R)-cyclohexylmethyl-9,9-dimethyl-4(S)-hydroxy-7-oxo-2(R)-phenylmethyl decaneamide] | 7.24 to 7.94
